Measured values as given in ChEMBL document CHEMBL3991601, “The target landscape of clinical kinase drugs” (Science, 2017).
Calls of active or inactive are those of the source. Cut-off read from the data, not from the text of the source, for most assays here: actives have a measured Kd and inactives only a lower limit.

Legend:
[1] = target: Tyrosine-protein kinase ABL2 (Homo sapiens, UniProt P42684)
[2] = target: Cyclin-dependent kinase 13 (Homo sapiens, UniProt Q14004)
[3] = target: Ephrin type-A receptor 2 (Homo sapiens, UniProt P29317)
[4] = target: T1, Ephrin type-B receptor 4 (Homo sapiens, UniProt P54760)
T1 sequence (P54760 whole entry): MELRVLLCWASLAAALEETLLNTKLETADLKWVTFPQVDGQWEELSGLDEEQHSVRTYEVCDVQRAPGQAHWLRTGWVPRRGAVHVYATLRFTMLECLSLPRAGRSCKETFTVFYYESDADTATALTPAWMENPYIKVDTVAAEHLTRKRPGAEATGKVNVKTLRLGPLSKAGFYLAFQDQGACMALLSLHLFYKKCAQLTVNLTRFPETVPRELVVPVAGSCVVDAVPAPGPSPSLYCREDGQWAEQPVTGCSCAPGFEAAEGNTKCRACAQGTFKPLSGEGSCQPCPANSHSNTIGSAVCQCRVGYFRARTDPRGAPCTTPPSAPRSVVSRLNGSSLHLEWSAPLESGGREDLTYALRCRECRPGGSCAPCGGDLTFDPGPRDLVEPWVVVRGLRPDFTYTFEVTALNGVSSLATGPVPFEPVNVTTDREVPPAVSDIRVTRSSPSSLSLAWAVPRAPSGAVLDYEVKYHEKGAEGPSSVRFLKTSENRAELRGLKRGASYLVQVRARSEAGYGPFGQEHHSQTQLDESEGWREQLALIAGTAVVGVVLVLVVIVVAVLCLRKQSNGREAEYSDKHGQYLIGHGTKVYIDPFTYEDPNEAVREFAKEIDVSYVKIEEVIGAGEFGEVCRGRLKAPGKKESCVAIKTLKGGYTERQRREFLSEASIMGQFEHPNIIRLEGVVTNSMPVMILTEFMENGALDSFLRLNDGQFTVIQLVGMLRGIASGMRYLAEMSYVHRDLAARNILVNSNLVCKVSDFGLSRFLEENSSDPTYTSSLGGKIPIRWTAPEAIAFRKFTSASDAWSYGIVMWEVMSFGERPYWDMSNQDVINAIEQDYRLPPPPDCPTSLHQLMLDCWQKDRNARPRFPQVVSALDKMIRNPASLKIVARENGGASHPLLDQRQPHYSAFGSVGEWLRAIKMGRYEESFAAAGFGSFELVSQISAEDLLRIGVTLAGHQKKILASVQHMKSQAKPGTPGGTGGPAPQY

[5] = target: Interleukin-1 receptor-associated kinase 1 (Homo sapiens, UniProt P51617)
[6] = target: T2, Interleukin-1 receptor-associated kinase 3 (Homo sapiens, UniProt Q9Y616)
T2 sequence (Q9Y616 whole entry): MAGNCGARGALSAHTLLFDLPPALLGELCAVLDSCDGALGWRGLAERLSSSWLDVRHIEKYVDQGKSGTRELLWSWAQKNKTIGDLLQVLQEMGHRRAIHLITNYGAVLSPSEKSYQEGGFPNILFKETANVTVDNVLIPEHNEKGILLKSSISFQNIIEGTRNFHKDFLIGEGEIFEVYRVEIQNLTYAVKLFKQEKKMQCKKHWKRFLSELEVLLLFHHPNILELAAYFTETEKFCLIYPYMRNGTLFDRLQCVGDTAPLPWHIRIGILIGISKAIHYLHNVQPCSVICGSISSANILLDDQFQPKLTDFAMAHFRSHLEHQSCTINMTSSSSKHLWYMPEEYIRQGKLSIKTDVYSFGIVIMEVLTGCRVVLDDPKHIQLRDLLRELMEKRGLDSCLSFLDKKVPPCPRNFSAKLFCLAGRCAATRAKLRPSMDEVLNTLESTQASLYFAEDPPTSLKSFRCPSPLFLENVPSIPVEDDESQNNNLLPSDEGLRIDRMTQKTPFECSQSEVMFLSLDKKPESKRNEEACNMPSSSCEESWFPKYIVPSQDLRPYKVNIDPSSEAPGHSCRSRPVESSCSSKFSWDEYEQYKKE

[7] = target: T3, Dual specificity mitogen-activated protein kinase kinase 6 (Homo sapiens, UniProt P52564)
T3 sequence (P52564 whole entry): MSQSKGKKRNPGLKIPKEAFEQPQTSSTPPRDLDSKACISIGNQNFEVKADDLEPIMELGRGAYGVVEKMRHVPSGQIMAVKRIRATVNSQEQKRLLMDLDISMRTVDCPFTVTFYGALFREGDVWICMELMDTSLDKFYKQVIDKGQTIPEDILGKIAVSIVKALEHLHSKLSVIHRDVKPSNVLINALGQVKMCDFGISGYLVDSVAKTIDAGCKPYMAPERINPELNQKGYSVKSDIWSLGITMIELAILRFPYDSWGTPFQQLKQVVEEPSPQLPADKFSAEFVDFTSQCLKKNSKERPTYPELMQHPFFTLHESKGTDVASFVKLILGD

[8] = target: Serine/threonine-protein kinase N1 (Homo sapiens, UniProt Q16512)
Chain of Serine/threonine-protein kinase N1 (Q16512 whole entry): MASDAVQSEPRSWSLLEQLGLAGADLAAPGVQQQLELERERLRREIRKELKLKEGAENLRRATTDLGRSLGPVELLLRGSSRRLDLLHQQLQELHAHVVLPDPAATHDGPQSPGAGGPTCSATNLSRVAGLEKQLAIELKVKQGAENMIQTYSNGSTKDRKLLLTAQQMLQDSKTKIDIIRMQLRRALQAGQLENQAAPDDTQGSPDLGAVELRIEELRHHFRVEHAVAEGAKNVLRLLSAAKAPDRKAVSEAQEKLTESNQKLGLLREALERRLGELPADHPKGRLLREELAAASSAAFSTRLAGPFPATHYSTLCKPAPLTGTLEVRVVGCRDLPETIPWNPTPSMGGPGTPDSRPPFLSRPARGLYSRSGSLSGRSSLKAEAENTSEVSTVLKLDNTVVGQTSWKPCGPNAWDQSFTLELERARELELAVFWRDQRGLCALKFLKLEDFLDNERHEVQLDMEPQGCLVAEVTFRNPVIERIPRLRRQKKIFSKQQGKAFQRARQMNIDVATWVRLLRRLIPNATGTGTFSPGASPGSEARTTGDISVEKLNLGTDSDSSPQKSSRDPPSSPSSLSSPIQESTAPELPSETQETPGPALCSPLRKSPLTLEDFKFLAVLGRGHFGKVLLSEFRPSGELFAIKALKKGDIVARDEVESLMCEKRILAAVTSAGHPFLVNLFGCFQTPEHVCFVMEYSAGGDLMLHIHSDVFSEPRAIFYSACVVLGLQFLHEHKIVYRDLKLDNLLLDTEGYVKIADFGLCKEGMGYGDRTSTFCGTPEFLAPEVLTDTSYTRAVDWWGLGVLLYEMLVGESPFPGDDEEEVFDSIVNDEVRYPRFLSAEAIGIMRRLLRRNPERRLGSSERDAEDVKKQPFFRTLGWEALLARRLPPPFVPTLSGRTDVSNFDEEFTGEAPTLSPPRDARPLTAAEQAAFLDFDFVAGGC

[9] = target: Protein-tyrosine kinase 2-beta (Homo sapiens, UniProt Q14289)
Chain of Protein-tyrosine kinase 2-beta (Q14289 whole entry): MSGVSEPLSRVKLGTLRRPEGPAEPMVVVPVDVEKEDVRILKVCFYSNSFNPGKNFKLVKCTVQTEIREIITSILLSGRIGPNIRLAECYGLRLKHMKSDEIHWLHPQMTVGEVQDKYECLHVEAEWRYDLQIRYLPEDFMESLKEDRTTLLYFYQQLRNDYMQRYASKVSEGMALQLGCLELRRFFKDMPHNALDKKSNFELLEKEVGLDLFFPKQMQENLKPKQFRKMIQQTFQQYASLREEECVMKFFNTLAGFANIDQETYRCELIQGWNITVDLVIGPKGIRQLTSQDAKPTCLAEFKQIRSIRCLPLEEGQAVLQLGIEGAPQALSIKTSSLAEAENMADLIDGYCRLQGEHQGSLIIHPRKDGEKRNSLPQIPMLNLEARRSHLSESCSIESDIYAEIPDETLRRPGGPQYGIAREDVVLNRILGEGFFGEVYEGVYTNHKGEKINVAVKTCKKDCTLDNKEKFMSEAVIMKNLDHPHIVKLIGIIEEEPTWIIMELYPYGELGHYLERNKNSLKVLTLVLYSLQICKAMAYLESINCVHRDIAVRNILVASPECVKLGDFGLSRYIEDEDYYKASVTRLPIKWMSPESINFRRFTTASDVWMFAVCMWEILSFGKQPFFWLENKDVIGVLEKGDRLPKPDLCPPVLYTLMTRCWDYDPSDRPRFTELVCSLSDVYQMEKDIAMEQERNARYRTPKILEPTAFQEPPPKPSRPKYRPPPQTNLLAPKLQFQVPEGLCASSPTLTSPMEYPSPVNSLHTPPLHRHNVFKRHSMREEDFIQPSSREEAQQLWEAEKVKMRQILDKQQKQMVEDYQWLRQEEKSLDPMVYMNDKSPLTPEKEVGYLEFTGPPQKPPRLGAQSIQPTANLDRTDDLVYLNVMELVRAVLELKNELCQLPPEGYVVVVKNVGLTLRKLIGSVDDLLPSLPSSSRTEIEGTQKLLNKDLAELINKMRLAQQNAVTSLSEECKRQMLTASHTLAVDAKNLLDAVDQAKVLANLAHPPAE

[10] = target: Ras-related protein Rab-6A (Homo sapiens, UniProt P20340)
[11] = target: Structural maintenance of chromosomes protein 2 (Homo sapiens, UniProt O95347)
Chain of Structural maintenance of chromosomes protein 2 (O95347 whole entry): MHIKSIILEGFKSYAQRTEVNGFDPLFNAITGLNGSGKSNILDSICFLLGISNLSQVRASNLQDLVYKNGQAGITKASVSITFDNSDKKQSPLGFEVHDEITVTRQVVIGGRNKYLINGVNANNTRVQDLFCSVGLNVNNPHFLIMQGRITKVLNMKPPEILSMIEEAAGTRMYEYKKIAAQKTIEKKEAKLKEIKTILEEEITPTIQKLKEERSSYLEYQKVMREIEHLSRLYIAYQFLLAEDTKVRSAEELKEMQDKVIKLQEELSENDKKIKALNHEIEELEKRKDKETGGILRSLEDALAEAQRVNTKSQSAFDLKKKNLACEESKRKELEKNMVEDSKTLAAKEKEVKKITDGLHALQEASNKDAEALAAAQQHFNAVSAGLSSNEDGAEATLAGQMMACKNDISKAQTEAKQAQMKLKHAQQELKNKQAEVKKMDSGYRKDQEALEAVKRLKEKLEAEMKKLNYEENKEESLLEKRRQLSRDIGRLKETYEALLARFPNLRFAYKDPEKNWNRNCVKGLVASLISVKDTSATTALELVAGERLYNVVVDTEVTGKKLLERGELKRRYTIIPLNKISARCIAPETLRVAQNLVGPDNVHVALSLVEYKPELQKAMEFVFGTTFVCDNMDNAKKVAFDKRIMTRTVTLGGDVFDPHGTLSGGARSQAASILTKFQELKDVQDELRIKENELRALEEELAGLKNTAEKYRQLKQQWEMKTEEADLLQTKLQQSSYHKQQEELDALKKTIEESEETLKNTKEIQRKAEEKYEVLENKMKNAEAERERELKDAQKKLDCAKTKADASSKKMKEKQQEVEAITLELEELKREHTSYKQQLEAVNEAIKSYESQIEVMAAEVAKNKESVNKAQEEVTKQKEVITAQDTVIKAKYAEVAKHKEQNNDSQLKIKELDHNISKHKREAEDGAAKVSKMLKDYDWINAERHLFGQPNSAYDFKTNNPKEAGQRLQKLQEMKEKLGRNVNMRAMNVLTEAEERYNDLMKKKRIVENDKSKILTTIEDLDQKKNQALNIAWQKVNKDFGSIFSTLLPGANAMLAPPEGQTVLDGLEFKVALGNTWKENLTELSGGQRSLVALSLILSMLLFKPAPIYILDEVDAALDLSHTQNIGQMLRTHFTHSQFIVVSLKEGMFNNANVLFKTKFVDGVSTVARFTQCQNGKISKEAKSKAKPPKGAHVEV

[12] = target: T4, Serine/threonine-protein kinase STK11 (Homo sapiens, UniProt Q15831)
T4 sequence (Q15831 whole entry): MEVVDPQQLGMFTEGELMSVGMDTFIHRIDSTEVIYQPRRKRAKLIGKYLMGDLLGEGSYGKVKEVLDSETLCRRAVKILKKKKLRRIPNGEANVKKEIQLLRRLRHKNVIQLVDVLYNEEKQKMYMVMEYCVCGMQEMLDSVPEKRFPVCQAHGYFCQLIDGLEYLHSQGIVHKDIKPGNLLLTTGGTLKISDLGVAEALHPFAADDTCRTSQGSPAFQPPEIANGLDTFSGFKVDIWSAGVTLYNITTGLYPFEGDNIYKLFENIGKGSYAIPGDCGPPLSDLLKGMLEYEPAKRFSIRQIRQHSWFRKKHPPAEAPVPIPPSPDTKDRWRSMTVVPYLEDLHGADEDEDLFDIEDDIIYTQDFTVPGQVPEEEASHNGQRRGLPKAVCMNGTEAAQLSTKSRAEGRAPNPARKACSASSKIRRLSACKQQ

[13] = target: Serine/threonine-protein kinase 26 (Homo sapiens, UniProt Q9P289)
[14] = target: Putative heat shock protein HSP 90-beta 2 (Homo sapiens, UniProt Q58FF8)
Chain of Putative heat shock protein HSP 90-beta 2 (Q58FF8 whole entry): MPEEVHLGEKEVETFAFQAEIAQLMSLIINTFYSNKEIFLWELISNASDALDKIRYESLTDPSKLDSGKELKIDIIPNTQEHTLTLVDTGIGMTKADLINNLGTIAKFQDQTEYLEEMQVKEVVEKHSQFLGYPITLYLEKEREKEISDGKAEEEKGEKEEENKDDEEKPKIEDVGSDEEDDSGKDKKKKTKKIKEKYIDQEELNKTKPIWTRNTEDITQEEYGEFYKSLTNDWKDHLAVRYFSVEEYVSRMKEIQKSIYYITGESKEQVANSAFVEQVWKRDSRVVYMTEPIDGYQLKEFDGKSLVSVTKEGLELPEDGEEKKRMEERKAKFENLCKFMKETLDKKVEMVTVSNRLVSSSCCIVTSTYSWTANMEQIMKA
Note: in the data inactive means no Kd found up to 30 µM.

Chain of Cyclin-dependent kinase 13 (Q14004 whole entry): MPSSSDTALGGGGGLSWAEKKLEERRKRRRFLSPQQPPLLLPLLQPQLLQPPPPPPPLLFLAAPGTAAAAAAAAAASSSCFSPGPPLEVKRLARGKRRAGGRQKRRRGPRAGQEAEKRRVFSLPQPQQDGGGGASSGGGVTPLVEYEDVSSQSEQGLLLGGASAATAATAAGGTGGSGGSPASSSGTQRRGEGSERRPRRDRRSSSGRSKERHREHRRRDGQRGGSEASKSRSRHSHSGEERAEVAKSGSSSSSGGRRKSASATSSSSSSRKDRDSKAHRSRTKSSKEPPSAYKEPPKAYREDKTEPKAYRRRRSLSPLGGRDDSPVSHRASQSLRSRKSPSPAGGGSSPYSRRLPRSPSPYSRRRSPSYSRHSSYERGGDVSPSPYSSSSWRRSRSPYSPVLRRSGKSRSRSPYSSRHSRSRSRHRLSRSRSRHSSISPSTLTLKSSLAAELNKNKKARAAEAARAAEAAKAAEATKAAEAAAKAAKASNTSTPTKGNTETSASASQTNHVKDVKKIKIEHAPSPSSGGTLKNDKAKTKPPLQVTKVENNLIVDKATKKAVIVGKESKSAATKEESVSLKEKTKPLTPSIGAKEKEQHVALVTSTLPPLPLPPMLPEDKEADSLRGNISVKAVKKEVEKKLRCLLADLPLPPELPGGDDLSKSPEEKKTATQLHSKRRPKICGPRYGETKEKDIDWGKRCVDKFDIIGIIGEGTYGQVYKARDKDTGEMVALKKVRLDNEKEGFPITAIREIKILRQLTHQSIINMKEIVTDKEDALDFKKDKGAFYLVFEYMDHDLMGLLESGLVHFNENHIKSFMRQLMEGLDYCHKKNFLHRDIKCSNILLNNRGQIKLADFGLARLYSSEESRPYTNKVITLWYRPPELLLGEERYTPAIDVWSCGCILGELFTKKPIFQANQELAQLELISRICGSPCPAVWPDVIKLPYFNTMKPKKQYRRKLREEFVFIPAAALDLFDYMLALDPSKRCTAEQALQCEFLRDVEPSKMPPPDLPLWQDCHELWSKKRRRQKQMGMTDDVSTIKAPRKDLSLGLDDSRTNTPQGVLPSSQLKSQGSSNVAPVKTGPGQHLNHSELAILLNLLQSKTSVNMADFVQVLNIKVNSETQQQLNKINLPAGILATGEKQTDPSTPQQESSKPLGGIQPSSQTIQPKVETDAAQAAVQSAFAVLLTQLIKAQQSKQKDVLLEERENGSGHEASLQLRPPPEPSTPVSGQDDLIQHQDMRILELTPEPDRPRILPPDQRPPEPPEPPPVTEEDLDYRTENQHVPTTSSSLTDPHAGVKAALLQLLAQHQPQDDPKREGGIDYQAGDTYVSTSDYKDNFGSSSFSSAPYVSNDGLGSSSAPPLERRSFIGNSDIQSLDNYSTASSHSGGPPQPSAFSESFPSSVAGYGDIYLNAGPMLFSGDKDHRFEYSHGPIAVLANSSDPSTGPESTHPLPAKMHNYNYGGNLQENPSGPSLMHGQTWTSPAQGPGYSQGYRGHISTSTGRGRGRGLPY

| Compound | Kd [1] | Kd [2] | Kd [3] | Kd [4] | Kd [5] | Kd [6] | Kd [7] | Kd [8] | Kd [9] | Kd [10] | Kd [11] | Kd [12] | Kd [13] | Kd [14] |
| --- | --- | --- | --- | --- | --- | --- | --- | --- | --- | --- | --- | --- | --- | --- |
| S=C(NCc1ccc2c(c1)OCO2)N1CCN(c2ncnc3c2oc2ccccc23)CC1 [AMUVATINIB] | > 30 µM (inactive) | > 30 µM (inactive) | > 30 µM (inactive) | > 30 µM (inactive) | > 30 µM (inactive) | > 30 µM (inactive) | > 30 µM (inactive) | > 30 µM (inactive) | > 30 µM (inactive) | > 30 µM (inactive) | > 30 µM (inactive) | > 30 µM (inactive) | > 30 µM (inactive) | – |
| NC[C@@](O)(c1ccc(Cl)cc1)c1ccc(-c2cn[nH]c2)cc1 [AT-13148] | > 30 µM (inactive) | > 30 µM (inactive) | > 30 µM (inactive) | > 30 µM (inactive) | > 30 µM (inactive) | > 30 µM (inactive) | > 30 µM (inactive) | 0.025 µM (active) | > 30 µM (inactive) | – | > 30 µM (inactive) | > 30 µM (inactive) | > 30 µM (inactive) | > 30 µM (inactive) |
| COc1cccc(Nc2ncnn3ccc(CN4CC[C@@H](N)[C@H](O)C4)c23)c1 [BMS-690514] | 0.04 µM (active) | > 30 µM (inactive) | > 30 µM (inactive) | > 30 µM (inactive) | > 30 µM (inactive) | > 30 µM (inactive) | > 30 µM (inactive) | 1.34 µM (active) | > 30 µM (inactive) | – | > 30 µM (inactive) | > 30 µM (inactive) | > 30 µM (inactive) | > 30 µM (inactive) |
| CCc1nc(C(N)=O)c(Nc2ccc(N3CCC(N4CCN(C)CC4)CC3)c(OC)c2)nc1NC1CCOCC1 [GILTERITINIB] | > 30 µM (inactive) | > 30 µM (inactive) | > 30 µM (inactive) | > 30 µM (inactive) | > 30 µM (inactive) | – | 1.89 µM (active) | > 30 µM (inactive) | 0.51 µM (active) | > 30 µM (inactive) | > 30 µM (inactive) | > 30 µM (inactive) | 1.14 µM (active) | > 30 µM (inactive) |
| N#CCNC(=O)c1ccc(-c2ccnc(Nc3ccc(N4CCOCC4)cc3)n2)cc1 [MOMELOTINIB] | > 30 µM (inactive) | > 30 µM (inactive) | > 30 µM (inactive) | > 30 µM (inactive) | > 30 µM (inactive) | > 30 µM (inactive) | > 30 µM (inactive) | > 30 µM (inactive) | – | > 30 µM (inactive) | > 30 µM (inactive) | > 30 µM (inactive) | > 30 µM (inactive) | > 30 µM (inactive) |
| C=CCN(/C=C1/C(=O)O[C@H](COC)[C@@]2(C)C1=C(O)C(=O)C1=C2[C@H](OC(C)=O)C[C@]2(C)C(=O)CC[C@@H]12)CC=C [SONOLISIB] | > 30 µM (inactive) | > 30 µM (inactive) | > 30 µM (inactive) | > 30 µM (inactive) | > 30 µM (inactive) | > 30 µM (inactive) | > 30 µM (inactive) | > 30 µM (inactive) | > 30 µM (inactive) | – | > 30 µM (inactive) | > 30 µM (inactive) | > 30 µM (inactive) | > 30 µM (inactive) |
